The IC50 is the midpoint of a concentration-inhibition curve.

One assay has as its target T1, hMeprin α (Homo sapiens, UniProt Q16819).
T1 sequence (Q16819 66-746): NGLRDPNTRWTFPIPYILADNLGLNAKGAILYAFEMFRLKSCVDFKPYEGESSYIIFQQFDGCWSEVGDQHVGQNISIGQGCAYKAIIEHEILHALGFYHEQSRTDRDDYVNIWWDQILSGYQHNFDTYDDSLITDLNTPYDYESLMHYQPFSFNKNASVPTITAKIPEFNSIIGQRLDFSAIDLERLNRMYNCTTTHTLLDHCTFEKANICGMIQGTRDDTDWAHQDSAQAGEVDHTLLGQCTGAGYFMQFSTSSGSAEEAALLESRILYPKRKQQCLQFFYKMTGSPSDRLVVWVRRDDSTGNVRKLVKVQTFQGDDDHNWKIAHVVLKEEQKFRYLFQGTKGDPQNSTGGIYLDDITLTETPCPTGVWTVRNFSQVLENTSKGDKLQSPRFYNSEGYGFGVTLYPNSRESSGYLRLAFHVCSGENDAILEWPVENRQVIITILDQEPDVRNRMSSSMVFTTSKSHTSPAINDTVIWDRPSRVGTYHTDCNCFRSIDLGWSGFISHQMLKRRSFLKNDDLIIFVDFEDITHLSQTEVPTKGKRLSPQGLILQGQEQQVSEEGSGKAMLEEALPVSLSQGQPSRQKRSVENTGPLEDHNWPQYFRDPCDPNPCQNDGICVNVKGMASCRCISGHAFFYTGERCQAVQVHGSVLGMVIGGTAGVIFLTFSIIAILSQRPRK
The experiment in a line: Enzymatic assay, quenched peptide substrate cleavage, method B. Type of assay: biochemical. The following applies: geometric mean (geometric SD factor in parentheses); for Ki: Morrison's equation, read-out: Meprin alpha Ki(app); for IC50: read-out: Meprin alpha IC50. How it is done:
(§1) The determination of enzymatic activity was based on the cleavage of internally quenched peptide substrates. A typical assay of 250 μl total volume measured in black 96 well plates consisted of 100 μl buffer, 50 μl enzyme at a final concentration of 5e-8 M to 2e-10 M, 50 μl substrate (0.15 to 80 μM, in buffer, 0.5% DMSO) and 50 μl inhibitor solution (in buffer, 1% DMSO). In case of 125 μl assay volume (black 96 half area well plates) all volumes were cut in half. Enzymatic activity of ADAMs was measured in 384 well plates with 60 μl total assay volume consisting of 20 μl inhibitor, 20 μl buffer, 10 μl enzyme and 10 μl substrate.
(§2) Based on method B Ki^(app) values were determined using Morrison's equation. All measurements were performed using a fluorescence plate reader (FLUOSTAR OPTIMA, BMG Labtech) at 30° C. The kinetic parameters were determined at least in duplicates on separate days. The excitation/emission wavelength was 340/420 nm. The kinetic data was evaluated using GRAFIT software (version 7.0.3, Erithacus Software).

In another assay the target is T2, hMeprin β (Homo sapiens, UniProt Q16820).
T2 sequence (Q16820 62-701): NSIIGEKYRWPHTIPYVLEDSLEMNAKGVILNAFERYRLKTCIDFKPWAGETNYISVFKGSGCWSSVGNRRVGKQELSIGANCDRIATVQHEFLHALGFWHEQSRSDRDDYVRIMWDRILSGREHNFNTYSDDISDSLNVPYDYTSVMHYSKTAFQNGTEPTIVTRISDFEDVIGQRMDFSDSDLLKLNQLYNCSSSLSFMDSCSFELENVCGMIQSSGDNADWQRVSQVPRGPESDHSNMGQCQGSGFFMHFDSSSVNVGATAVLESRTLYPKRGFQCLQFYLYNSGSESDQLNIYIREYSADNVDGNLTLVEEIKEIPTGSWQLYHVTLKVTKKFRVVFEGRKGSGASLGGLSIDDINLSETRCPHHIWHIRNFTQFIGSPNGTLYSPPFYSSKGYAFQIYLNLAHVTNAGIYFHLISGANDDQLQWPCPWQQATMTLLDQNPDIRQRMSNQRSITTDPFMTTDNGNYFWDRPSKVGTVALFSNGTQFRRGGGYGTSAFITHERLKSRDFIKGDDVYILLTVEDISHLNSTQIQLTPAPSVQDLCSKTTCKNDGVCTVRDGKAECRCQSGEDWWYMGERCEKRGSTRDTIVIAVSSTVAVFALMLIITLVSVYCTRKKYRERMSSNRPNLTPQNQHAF
Described as above. Type of assay: biochemical. The note with it: geometric mean (geometric SD factor in parentheses); for Ki: Morrison's equation, read-out: Meprin beta Ki(app); for IC50: read-out: Meprin beta IC50. As to the method:
as §1, §2

For `COc1ccc(-c2nc3ccccc3n2CC(=O)NO)cc1` [Example 15, 2-[2-(4-Methoxyphenyl)benzimidazol-1-yl]ethanehydroxamic acid], the Ki on hMeprin α turned out to be 0.094 µM; at hMeprin β, 0.252 µM. In addition, the values for the IC50 at hMeprin α and at hMeprin β were 0.095 µM and 0.257 µM, respectively.

In the case of `O=C(Cn1c(-c2ccccc2C(=O)O)nc2ccccc21)NO` [Example 17, 2-[1-[2-(Hydroxyamino)-2-oxo-ethyl]benzimidazol-2-yl]benzoic acid], at hMeprin α, the Ki is 1.39 µM and the half-inhibitory concentration (IC50) worked out at 1.43 µM. At hMeprin β, the Ki is 13.2 µM and the IC50 worked out at 13.7 µM.

Take `O=C(Cn1c(-c2cccc(C(=O)O)c2)nc2ccccc21)NO` [Example 18, 3-[1-[2-(Hydroxyamino)-2-oxo-ethyl]benzimidazol-2-yl]benzoic acid]: at hMeprin α, the Ki amounted to 0.062 µM and the IC50 turned out to be 0.063 µM. Further, at hMeprin β, the Ki was 0.16 µM and the IC50 stood at 0.164 µM.

For the compound `O=C(Cn1c(-c2ccc(C(=O)O)cc2)nc2ccccc21)NO` [Example 19, 4-[1-[2-(Hydroxyamino)-2-oxo-ethyl]benzimidazol-2-yl]benzoic acid], at hMeprin α, the Ki stood at 0.071 µM and the IC50 was found to be 0.075 µM. Further, at hMeprin β, the Ki is 0.119 µM and the half-maximal inhibitory concentration (IC50) amounted to 0.127 µM.

With `O=C(Cn1c(-c2ccc(Cl)c(O)c2F)nc2c(C(=O)O)cccc21)NO` [Example 20, 2-(4-Chloro-2-fluoro-3-hydroxy-phenyl)-1-[2-(hydroxyamino)-2-oxo-ethyl]benzimidazole-4-carboxylic acid], on hMeprin α, the Ki stood at 0.903 µM and the IC50 amounted to 0.908 µM. Besides, at hMeprin β, the Ki was 1.16 µM and the IC50 turned out to be 1.19 µM.

`O=C(Cn1c(-c2ccc(Cl)c(O)c2F)nc2cc(C(=O)O)ccc21)NO` [Example 21, 2-(4-Chloro-2-fluoro-3-hydroxy-phenyl)-1-[2-(hydroxyamino)-2-oxo-ethyl]benzimidazole-5-carboxylic acid]: on hMeprin α, the Ki was found to be 0.435 µM and the IC50 amounted to 0.443 µM. Further, on hMeprin β, the Ki turned out to be 0.119 µM and the IC50 came to 0.125 µM.

In the case of `O=C(Cn1c(-c2ccc(Cl)c(O)c2F)nc2ccc(C(=O)O)cc21)NO` [Example 22, 2-(4-Chloro-2-fluoro-3-hydroxy-phenyl)-3-[2-(hydroxyamino)-2-oxo-ethyl]benzimidazole-5-carboxylic acid], at hMeprin α, the Ki stood at 0.006 µM and the IC50 amounted to 0.006 µM. In addition, on hMeprin β, the Ki was found to be 0.007 µM and the IC50 was 0.008 µM.

With `Cc1n[nH]c(-c2ccccc2)c1CC(=O)NO` [Example 44, 2-(3-Methyl-5-phenyl-1H-pyrazol-4-yl)ethanehydroxamic acid], the Ki on hMeprin α worked out at 0.302 µM; at hMeprin β it was 2.11 µM. The IC50 at hMeprin α is 0.31 µM; on hMeprin β, 2.17 µM.

Consider `O=C(Cc1c(C2CCCC2)n[nH]c1-c1ccccc1)NO` [Example 45, 2-(3-Cyclopentyl-5-phenyl-1H-pyrazol-4-yl)ethanehydroxamic acid], for which the Ki on hMeprin α amounted to 0.006 µM; at hMeprin β it was 0.32 µM. In addition, the IC50 is 0.006 µM at hMeprin α and 0.327 µM on hMeprin β.

As to `O=C(Cc1c(Cc2ccccc2)n[nH]c1-c1ccccc1)NO` [Example 46, 2-(3-Benzyl-5-phenyl-1H-pyrazol-4-yl)ethanehydroxamic acid], the Ki at hMeprin α came out at 0.07 µM; at hMeprin β, 1.73 µM. Also, the IC50 on hMeprin α turned out to be 0.071 µM; on hMeprin β, 1.78 µM.

In the case of `COc1ccc(-c2n[nH]c(-c3ccccc3)c2CC(=O)NO)cc1` [Example 48, 2-[3-(4-Methoxyphenyl)-5-phenyl-1H-pyrazol-4-yl]ethanehydroxamic acid], at hMeprin α, the Ki worked out at 0.001 µM and the IC50 was determined as 0.001 µM. Moreover, on hMeprin β, the Ki was 0.062 µM and the IC50 worked out at 0.064 µM.

Regarding `O=C(Cc1c(-c2cccc(C(=O)O)c2)n[nH]c1-c1ccccc1)NO` [Example 51, 3-[4-[2-(Hydroxyamino)-2-oxo-ethyl]-5-phenyl-1H-pyrazol-3-yl]benzoic acid], the values for the Ki on hMeprin α and on hMeprin β were 0.008 µM and 0.047 µM, respectively. Besides, the half-inhibitory concentration (IC50) at hMeprin α stood at 0.008 µM; at hMeprin β, 0.052 µM.

For `O=C(Cc1c(-c2ccc(C(=O)O)cc2)n[nH]c1-c1ccccc1)NO` [Example 52, 4-[4-[2-(Hydroxyamino)-2-oxo-ethyl]-5-phenyl-1H-pyrazol-3-yl]benzoic acid], on hMeprin α, the Ki is 0.017 µM and the IC50 stood at 0.018 µM. On hMeprin β, the Ki was found to be 0.116 µM and the IC50 turned out to be 0.13 µM.

With `O=C(Cc1c(-c2ccc(Cl)c(O)c2F)n[nH]c1-c1ccccc1)NO` [Example 53, 2-[3-(4-Chloro-2-fluoro-3-hydroxy-phenyl)-5-phenyl-1H-pyrazol-4-yl]ethanehydroxamic acid], the Ki was determined as 0.002 µM on hMeprin α and 0.061 µM at hMeprin β. The IC50 on hMeprin α was found to be 0.003 µM; at hMeprin β, 0.061 µM.

On to `N#Cc1cccc(-c2n[nH]c(-c3ccccc3)c2CC(=O)NO)c1` [Example 55, 2-[3-(3-Cyanophenyl)-5-phenyl-1H-pyrazol-4-yl]ethanehydroxamic acid], for which, at hMeprin α, the Ki worked out at 0.005 µM and the concentration for half-maximal inhibition (IC50) turned out to be 0.005 µM. For the same compound, on hMeprin β, the Ki is 0.335 µM and the IC50 was determined as 0.346 µM.

On to `N#Cc1ccc(-c2n[nH]c(-c3ccccc3)c2CC(=O)NO)cc1` [Example 56, 2-[3-(4-Cyanophenyl)-5-phenyl-1H-pyrazol-4-yl]ethanehydroxamic acid], for which the figures for the Ki on hMeprin α and on hMeprin β were 0.014 µM and 0.995 µM, respectively. Besides, the IC50 on hMeprin α came to 0.014 µM; at hMeprin β, 1.02 µM.

Take `O=C(Cc1c(-c2cccc(C(=O)O)c2)n[nH]c1-c1cccc(C(=O)O)c1)NO` [Example 58, 3-[3-(3-Carboxyphenyl)-4-[2-(hydroxyamino)-2-oxo-ethyl]-1H-pyrazol-5-yl]benzoic acid]: on hMeprin α, the Ki is 0.01 µM and the concentration for half-maximal inhibition (IC50) is 0.011 µM. Moreover, at hMeprin β, the Ki came out at 0.014 µM and the concentration for half-maximal inhibition (IC50) amounted to 0.017 µM.

For `O=C(Cc1c(-c2ccc(C(=O)O)cc2)n[nH]c1-c1ccc(C(=O)O)cc1)NO` [Example 59, 4-[3-(4-Carboxyphenyl)-4-[2-(hydroxyamino)-2-oxo-ethyl]-1H-pyrazol-5-yl]benzoic acid], on hMeprin α, the Ki worked out at 0.056 µM and the IC50 was 0.056 µM. Besides, at hMeprin β, the Ki worked out at 0.116 µM and the IC50 was found to be 0.128 µM.

For `O=C(Cc1c(-c2ccc(Cl)c(O)c2F)n[nH]c1-c1ccc(Cl)c(O)c1F)NO` [Example 60, 2-[3,5-Bis(4-chloro-2-fluoro-3-hydroxy-phenyl)-1H-pyrazol-4-yl]ethanehydroxamic acid], on hMeprin α, the Ki worked out at 0.004 µM and the IC50 stood at 0.004 µM. For the same compound, at hMeprin β, the Ki was 0.014 µM and the half-inhibitory concentration (IC50) turned out to be 0.014 µM.

In the case of `O=C(Cc1c(-c2ccc3c(c2)OCO3)n[nH]c1-c1cccc(C(=O)O)c1)NO` [Example 61, 3-[3-(1,3-Benzodioxol-5-yl)-4-[2-(hydroxyamino)-2-oxo-ethyl]-1H-pyrazol-5-yl)benzoic acid], on hMeprin α, the Ki came to 0.003 µM and the IC50 came out at 0.003 µM. For the same compound, at hMeprin β, the Ki came to 0.044 µM and the IC50 was 0.045 µM.

Source of the values: patent publication US20250388544A1, “HETEROAROMATIC INHIBITORS OF ASTACIN PROTEINASES” (VIVORYON THERAPEUTICS N.V., priority 2019, published 2025).
